Measurements taken from US20100305055A1, “COMBINATIONS OF POLYENE FUNGICIDE WITH CATIONIC SURFACTANTS” (Laboratorios Miret, S.A., priority 2007, published 2010).
Entries after “also recorded” stand apart in the source; their conditions may differ. Blank lines part the entries; values can stand above or below the compound they belong to.

Key:
[1] = tested on: Penicillum casicolum, Rizopus, Aspergillus niger and Cladosporium cladosporioides; assay: Microbiocidal effect on inoculated cured cheese immersed in baths; format: cell-based; conditions: Lauric arginate 10% bath, 5 seconds immersion; inoculated 4 log CFU/g; 22° C.; up to 15 days; separate treatments; monohydrochloride
Protocol: Cured cheese was purchased from a local producer. The cheese contains cow milk, sheep milk, goat milk, starters, salt, rennet. The minimum amount of fat 55%/dry weight. Minimum 45 dry weight. Lauric arginate-from […] with purity 90% Ethyl-N^α-lauroyl-L-arginate HCl. Natamycin-95% in dry weight commercially available. Inoculums is a mix of Penicillum casicolum, Rizopus, Aspergillus niger and Cladosporium cladosporioides. Spores seeded in Sabouraud Chloramphenirol agar are incubated at 25° C. for 5 days. Spores are scraped of the agar with Ringer broth and diluted in Brain Heart Infusion broth. Brain Heart Infusion broth is incubated at 25° C. for 5 days. Diluted inoculums are mixed at the desire concentration in order to have the mix inoculums. […] The cheese was sliced and cut in equal portions of 5 centimeters of diameter by 5 millimeters wide in sterile surroundings. The portions of cheese were immersed in the bath for 5 seconds. They were dripped and dried for 5 minutes in a sterile surface. After this, each sample was inoculated with Penicillum casicolum, Rizopus, Aspergillus niger and Cladosporium cladosporioides at target concentration of 4 log CFU/g. Natamycin 95% concentrations: two differently concentrated baths of natamycin were prepared: 500 ppm and 1000 ppm. Lauric arginate concentrations: four differently concentrated baths of Lauric arginate were prepared: 0.5%, 1%, 5% and 10%. […]

Aspergillus niger = assay: MIC and synergy index of natamycin/LAE solutions; format: cell-based
Protocol: (§1) In this example the influence of the synergism of combinations of LAE and natamycin in the inventive composition has been investigated.
(§2) For that purpose propylene glycol solutions with different concentrations of LAE and natamyin were prepared.
(§3) The effects of these preparations were investigated against the moulds Aspergillus niger, Penicillium caseicolum, Cladosporium cladosporioides and Rhizopus, the bacteria Escherichia coli (ATCC 8739), Salmonella typhimurium (ATCC 14028), Listeria monocytogenes (ATCC 15313), Bacillus subtilis (ATCC 6633) and the yeasts Candida albicans (ATCC 10231) and Saccharomyces cerevisiae (ATCC 9763).
(§4) The table indicates the MIC values found at different relationship between natamycin and LAE, whereby a value for natamycin: LAE 1:1 means the same concentration for both substances in the antimicrobial composition.
(§5) The interaction of the two components of the antimicrobial mixture is calculated according to the method described by Kull et al. (Kull F. C., Eisman P. C., Sylwestrowicz H. D. and Mayer R. L., Applied Microbiology, 1961; 6: 538-541). According to this method the so-called synergy index is calculated according to the following formula:
(§6) Synergy index SI=Qlae/QLAE+Qn/QN.
(§7) The elements used for the calculation of the synergy index according to the above formula have the following meaning: • Qlae=minimum inhibition concentration of LAE in the mixture of LAE and natamycin, • QLAE=minimum inhibition concentration of LAE as single antimicrobial without natamycin, • Qn=minimum inhibition concentration of natamycin in the mixture of LAE and natamycin and • QN=minimum inhibition concentration of natamycin as single antimicrobial without LAE.
(§8) All indicated symbols indicate a particular concentration leading to a particular end point, in this case the inhibition of growth of the microorganisms, so that the selected end point is in fact the minimal inhibitory concentration (MIC).
(§9) When the synergy index is 1, then there is an addition of the effects of the two components.
(§10) Qn: MIC of natamycin in the mixture of natamycin and LAE QN: MIC of natamycin alone Qlae: MIC of LAE in the mixture of natamycin and LAE QLAE: MIC of LAE alone

[2] = tested on: Saccharomyces cerevisiae ATCC 9763; assay: MIC and synergy index of natamycin/LAE solutions; format: cell-based
Protocol: as §1, §2, §3, §4, §5, §6, §7, §8, §9, §10

Rhizopus = assay: MIC and synergy index of natamycin/LAE solutions; format: cell-based
Protocol: as §1, §2, §3, §4, §5, §6, §7, §8, §9, §10

Penicillium caseicolum = assay: MIC and synergy index of natamycin/LAE solutions; format: cell-based
Protocol: as §1, §2, §3, §4, §5, §6, §7, §8, §9, §10

[3] = tested on: Candida albicans ATCC 10231; assay: MIC and synergy index of natamycin/LAE solutions; format: cell-based
Protocol: as §1, §2, §3, §4, §5, §6, §7, §8, §9, §10

[4] = tested on: Cladosporium cladosporioides; assay: MIC and synergy index of natamycin/LAE solutions; format: cell-based
Protocol: as §1, §2, §3, §4, §5, §6, §7, §8, §9, §10

[5] = tested on: Salmonella typhimurium ATCC 14028; assay: MIC and synergy index of natamycin/LAE solutions; format: cell-based
Protocol: as §1, §2, §3, §4, §5, §6, §7, §8, §9, §10
(§11) The MIC values of natamycin alone (QN) reported in tables 5 to 8 corresponds to the maximum value studied. However, the real MIC of natamycin is higher than the maximum values studied (i.e.: 1024, 2048), accordingly the real SI should be lower than the SI reported in the tables.

[6] = tested on: Bacillus subtilis ATCC 6633; assay: MIC and synergy index of natamycin/LAE solutions; format: cell-based
Protocol: as §1, §2, §3, §4, §5, §6, §7, §8, §9, §10, §11

[7] = tested on: Escherichia coli ATCC 8739; assay: MIC and synergy index of natamycin/LAE solutions; format: cell-based
Protocol: as §1, §2, §3, §4, §5, §6, §7, §8, §9, §10, §11

[8] = tested on: Listeria monocytogenes ATCC 15313; assay: MIC and synergy index of natamycin/LAE solutions; format: cell-based
Protocol: as §1, §2, §3, §4, §5, §6, §7, §8, §9, §10, §11

[9] = Solubility of natamycin in aqueous solution with LAE; format: physicochemical; conditions: 10% of LAE in water
Source text: According to the dose level between natamycin and LAE, the total solubility of natamycin was observed. […] This low viscosity improves the application process of the solution in the product desired to be treated.

[10] = cited from earlier work
[11] = value is the maximum value studied, real MIC is higher

SMILES: CCCCCCCCCCCC(=O)N[C@@H](CCCN=C(N)N)C(=O)OCC.Cl [LAE, ethyl ester of the lauramide of the arginine monohydrochloride]
inhibitory power / microbiocidal effect on cured cheese [1]: best treatment; also recorded: effective
QLAE: MIC of LAE alone (Aspergillus niger): 128
QLAE: MIC of LAE alone [2]: 32
QLAE: MIC of LAE alone (Rhizopus): 648
QLAE: MIC of LAE alone (Penicillium caseicolum): 256
QLAE: MIC of LAE alone [3]: 16
QLAE: MIC of LAE alone [4]: 64
QLAE: MIC of LAE alone [5]: 32
QLAE: MIC of LAE alone [6]: 16
QLAE: MIC of LAE alone [7]: 32
QLAE: MIC of LAE alone [8]: 32

natamycin solubilised [9]: more than 1000 ppm
QN: MIC of natamycin alone (Aspergillus niger): 2
QN: MIC of natamycin alone [2]: 2.5
QN: MIC of natamycin alone (Rhizopus): 4
QN: MIC of natamycin alone (Penicillium caseicolum): 1
QN: MIC of natamycin alone [3]: 2
QN: MIC of natamycin alone [4]: 1
QN: MIC of natamycin alone [5, 11]: > 2048
QN: MIC of natamycin alone [6, 11]: > 2048
QN: MIC of natamycin alone [7, 11]: > 1024
QN: MIC of natamycin alone [8, 11]: > 1024
SMILES: C[C@@H]1C/C=C/C=C/C=C/C=C/[C@H](O[C@@H]2O[C@H](C)[C@@H](O)[C@H](N)[C@@H]2O)C[C@@H]2O[C@](O)(C[C@@H](O)C[C@H]3O[C@@H]3/C=C/C(=O)O1)C[C@H](O)[C@H]2C(=O)O [natamycin]
solubility of natamycin in water [10]: 0.005-0.010 % (w/w)
